Experimental data taken from patent US11033641B2, “Radiolabelled mGluR2/3 pet ligands” (Janssen Pharmaceutica NV, priority 2015, dated 2021).

What was measured:
[1] = system: mGluR2/3; experiment: microPET scan, baseline and after compound A pretreatment; type: in vivo; details: SD rats
Description: Data were acquired in a 128×128×95 matrix with a pixel width of 0.475 mm and a slice thickness of 0.796 mm. During PET imaging, rats were kept under gas anesthesia (2.5% isoflurane in oxygen at a flow rate of 1 l/min), and their body temperature was maintained between 36.5 and 37° C. using a heating pad. PET data were analyzed using Pmod software version 3.2 (Pmod, Zurich Switzerland).
(§1) Sprague-Dawley rats obtained from Harlan (the Netherlands), were housed in groups of four to six per cage until treatment. They were kept at a constant temperature of 21° C. and at a 12-h light/dark cycle, in which lights were switched on at 8:00 a.m. Animals had unrestricted access to food (Teklad Global 16% Protein Rodent Diet, Harlan, Madison, Wis., USA) and water. All animal experiments were performed in compliance with Belgium laws on animal experimentation and after approval by the local animal ethics committee.
All pretreatment solutions were 1 mg/mL solutions in 20% β-cyclodextrine in saline with a pH ranging between 6 and 8, and sterile filtered over a Millex GV filter prior to use.
For the baseline scan, 36-43 MBq of [^18F]-1 was injected in 3 SD rats weighing 229-251 g in the tail vein, and scanned simultaneously during a 90 min dynamic PET scan. For the pretreatment scan using compound A (a NAM compound, selective for mGlu2/3 (˜20 fold selective for 2 over 3) vs other mGluRs), the same animals were injected with 10 mg/kg compound A s.c. 60 minutes prior to injection of 38-37 MBq [^18F]-1 in the tail vein, and scanned simultaneously during a 90 minutes dynamic PET scan.
For the baseline scan, 39-49 MBq of [^18F]-2 was injected in 3 SD rats weighing 301-310 g in a tail vein, and scanned simultaneously during a 90-min dynamic PET scan. For the pretreatment scan using compound A, the same animals were injected with 10 mg/kg compound A s.c. 60 min prior to injection of 46-50 MBq [^18F]-2 in the tail vein, and scanned simultaneously during a 90 min dynamic PET scan.

[2] = Ex-vivo biodistribution in SD rats; design: species or system Sprague Dawley rats
Description: as §1
(§2) The biodistribution of [^18F]-1 was determined at 2, 10, 30 and 60 min, after injection in Sprague Dawley (SD) rats (n=3 per time point) while for [^18F]-2 the 30 min time point was not performed. Rats were injected intravenously with 0.7-1.1 MBq via a tail vein and euthanized at the time points indicated above, under isoflurane anesthesia. All tissues were dissected, weighed and counted for radioactivity in a gamma counter.
as §2, with “Dawley” for “Dawley (SD)”, “point).” for “point) while for [^18F]-2 the 30 min time point was not performed.”

SMILES: C[C@H]1CN(c2ccc(C(F)(F)F)cc2)C(=O)c2c(C#Cc3cnc(N)cc3C[18F])cnn21 [Compound 1]
- Brain uptake after pretreatment with compound A ([1]; 10 mg/kg compound A s.c. 60 min before tracer): uptake was reduced after pretreatment with compound A
- Brain uptake in PET scan, in words ([1]; 90 min dynamic PET scan): high brain uptake
- mGluR2/3 specificity of binding in vivo ([1]; PET, baseline vs compound A pretreatment): good mGluR2/3 specificity
- Biodistribution, mean SUV ([2]; blood, 2 min after i.v. injection): 1.12 SUV
- Biodistribution, mean SUV ([2]; blood, 10 min after i.v. injection): 0.74 SUV
- Biodistribution, mean SUV ([2]; blood, 30 min after i.v. injection): 0.47 SUV
- Biodistribution, mean SUV ([2]; blood, 60 min after i.v. injection): 0.50 SUV
- Biodistribution, mean SUV ([2]; bone, 2 min after i.v. injection): 0.39 SUV
- Biodistribution, mean SUV ([2]; bone, 10 min after i.v. injection): 0.34 SUV
- Biodistribution, mean SUV ([2]; bone, 30 min after i.v. injection): 0.48 SUV
- Biodistribution, mean SUV ([2]; bone, 60 min after i.v. injection): 0.58 SUV
- Biodistribution, mean SUV ([2]; cerebellum, 2 min after i.v. injection): 2.25 SUV
- Biodistribution, mean SUV ([2]; cerebellum, 10 min after i.v. injection): 3.17 SUV
- Biodistribution, mean SUV ([2]; cerebellum, 30 min after i.v. injection): 3.93 SUV
- Biodistribution, mean SUV ([2]; cerebellum, 60 min after i.v. injection): 4.41 SUV
- Biodistribution, mean SUV ([2]; cerebrum + cerebellum, 2 min after i.v. injection): 2.03 SUV
- Biodistribution, mean SUV ([2]; cerebrum + cerebellum, 10 min after i.v. injection): 3.11 SUV
- Biodistribution, mean SUV ([2]; cerebrum + cerebellum, 30 min after i.v. injection): 3.98 SUV
- Biodistribution, mean SUV ([2]; cerebrum + cerebellum, 60 min after i.v. injection): 4.95 SUV
- Biodistribution, mean SUV ([2]; cortex, 2 min after i.v. injection): 3.50 SUV
- Biodistribution, mean SUV ([2]; cortex, 10 min after i.v. injection): 8.37 SUV
- Biodistribution, mean SUV ([2]; cortex, 30 min after i.v. injection): 6.96 SUV
- Biodistribution, mean SUV ([2]; cortex, 60 min after i.v. injection): 8.11 SUV
- Brain uptake, in words ([2]; ex-vivo biodistribution): very high
- Defluorination judged from bone uptake over time ([2]; ex-vivo biodistribution): some defluorination
- Peripheral uptake, in words ([2]; ex-vivo biodistribution): highest uptake in the liver
- Biodistribution, mean SUV ([2]; heart, 2 min after i.v. injection): 3.54 SUV
- Biodistribution, mean SUV ([2]; heart, 10 min after i.v. injection): 2.11 SUV
- Biodistribution, mean SUV ([2]; heart, 30 min after i.v. injection): 1.41 SUV
- Biodistribution, mean SUV ([2]; heart, 60 min after i.v. injection): 1.30 SUV
- Biodistribution, mean SUV ([2]; hippocampus, 2 min after i.v. injection): 1.53 SUV
- Biodistribution, mean SUV ([2]; hippocampus, 10 min after i.v. injection): 2.49 SUV
- Biodistribution, mean SUV ([2]; hippocampus, 30 min after i.v. injection): 3.10 SUV
- Biodistribution, mean SUV ([2]; hippocampus, 60 min after i.v. injection): 3.90 SUV
- Biodistribution, mean SUV ([2]; kidneys, 2 min after i.v. injection): 4.97 SUV
- Biodistribution, mean SUV ([2]; kidneys, 10 min after i.v. injection): 2.58 SUV
- Biodistribution, mean SUV ([2]; kidneys, 30 min after i.v. injection): 2.08 SUV
- Biodistribution, mean SUV ([2]; kidneys, 60 min after i.v. injection): 2.16 SUV
- Biodistribution, mean SUV ([2]; liver, 2 min after i.v. injection): 9.74 SUV
- Biodistribution, mean SUV ([2]; liver, 10 min after i.v. injection): 6.38 SUV
- Biodistribution, mean SUV ([2]; liver, 30 min after i.v. injection): 4.66 SUV
- Biodistribution, mean SUV ([2]; liver, 60 min after i.v. injection): 4.75 SUV
- Biodistribution, mean SUV ([2]; lungs, 2 min after i.v. injection): 2.93 SUV
- Biodistribution, mean SUV ([2]; lungs, 10 min after i.v. injection): 1.78 SUV
- Biodistribution, mean SUV ([2]; lungs, 30 min after i.v. injection): 1.63 SUV
- Biodistribution, mean SUV ([2]; lungs, 60 min after i.v. injection): 1.92 SUV
- Biodistribution, mean SUV ([2]; muscle, 2 min after i.v. injection): 0.50 SUV
- Biodistribution, mean SUV ([2]; muscle, 10 min after i.v. injection): 0.83 SUV
- Biodistribution, mean SUV ([2]; muscle, 30 min after i.v. injection): 0.75 SUV
- Biodistribution, mean SUV ([2]; muscle, 60 min after i.v. injection): 0.79 SUV
- Biodistribution, mean SUV ([2]; pancreas, 2 min after i.v. injection): 4.30 SUV
- Biodistribution, mean SUV ([2]; pancreas, 10 min after i.v. injection): 2.36 SUV
- Biodistribution, mean SUV ([2]; pancreas, 30 min after i.v. injection): 2.06 SUV
- Biodistribution, mean SUV ([2]; pancreas, 60 min after i.v. injection): 2.33 SUV
- Biodistribution, mean SUV ([2]; pons, 2 min after i.v. injection): 1.53 SUV
- Biodistribution, mean SUV ([2]; pons, 10 min after i.v. injection): 1.73 SUV
- Biodistribution, mean SUV ([2]; pons, 30 min after i.v. injection): 1.76 SUV
- Biodistribution, mean SUV ([2]; pons, 60 min after i.v. injection): 1.85 SUV
- Biodistribution, mean SUV ([2]; rest of cerebrum, 2 min after i.v. injection): 2.06 SUV
- Biodistribution, mean SUV ([2]; rest of cerebrum, 10 min after i.v. injection): 3.34 SUV
- Biodistribution, mean SUV ([2]; rest of cerebrum, 30 min after i.v. injection): 4.37 SUV
- Biodistribution, mean SUV ([2]; rest of cerebrum, 60 min after i.v. injection): 5.52 SUV
- Biodistribution, mean SUV ([2]; spleen, 2 min after i.v. injection): 2.81 SUV
- Biodistribution, mean SUV ([2]; spleen, 10 min after i.v. injection): 1.68 SUV
- Biodistribution, mean SUV ([2]; spleen, 30 min after i.v. injection): 1.06 SUV
- Biodistribution, mean SUV ([2]; spleen, 60 min after i.v. injection): 1.02 SUV
- Biodistribution, mean SUV ([2]; striatum, 2 min after i.v. injection): 1.98 SUV
- Biodistribution, mean SUV ([2]; striatum, 10 min after i.v. injection): 3.46 SUV
- Biodistribution, mean SUV ([2]; striatum, 30 min after i.v. injection): 4.15 SUV
- Biodistribution, mean SUV ([2]; striatum, 60 min after i.v. injection): 7.12 SUV
- Biodistribution, mean SUV ([2]; whole cerebrum, 2 min after i.v. injection): 1.96 SUV
- Biodistribution, mean SUV ([2]; whole cerebrum, 10 min after i.v. injection): 3.05 SUV
- Biodistribution, mean SUV ([2]; whole cerebrum, 30 min after i.v. injection): 3.94 SUV
- Biodistribution, mean SUV ([2]; whole cerebrum, 60 min after i.v. injection): 5.00 SUV
